Like-named read-outs stand apart in the source and are kept apart here.
Key:
R478A DXPS = target: T1, R478A DXPS (Escherichia coli, UniProt P77488, R478A); conditions: EcR478A vs WT; cited from earlier work
T1 construct: made in house

EcDXPS [1] = target: T2, EcDXPS (Escherichia coli, UniProt P77488); conditions: cited from earlier work; for inhibitory activity against DXPS: source not stated at the place, probably ref 32
T2 construct: made in house

EcDXPS [2] = target: T2, EcDXPS; assay: DXPS-IspC coupled assay, aerobic, WT EcDXPS; type: biochemical, E. coli; conditions: for MOI varying D-GAP / MOI varying pyruvate: WT EcDXPS, aerobic
Procedure: Inhibitory activity of compounds against DXPS were monitored via a continuous spectrophotometric coupled assay with DXPS and IspC as previously described.[41],[42] Briefly, Reaction mixtures containing HEPES (100 mM, pH 8.0), MgCl2 (2 mM), NaCl (5 mM), ThDP (1 mM), BSA (1 mg/mL), DXPS (125–500 nM), IspC (1.7 μM), NADPH (160 μM), DMSO (5%, v/v), and inhibitor (0–200 μM) were preincubated at 25 °C (or chamber temperature 25–30 °C) for 5 min. Enzymatic reactions were initiated via the addition of 20 μL of a 10x substrate mix for a final well volume of 200 μL. Reactions were performed in triplicate unless otherwise noted. See the following sections for details and modifications.
When varying pyruvate (0–500 μM), GAP was maintained at 50 μM (3 mM for R478A). When varying GAP (0–500 μM), pyruvate was maintained at 500 μM. The following [DXPS] were used when varying 1: WT EcDXPS, R478A, H431A, D427A (200 nM), R99A (500 nM), WT DrDXPS, WT PaDXPS (150 nM). […] Reactions were incubated and initiated as described above. Immediately following initiation, NADPH depletion was monitored at 340 nm at 25 °C for 7–10 min with a 14–20 second time interval. Initial velocities of DXP formation were determined from the linear portion of the NADPH decay. […] Initial velocities were plotted vs. substrate concentration, and the data were fit to equation 1 (mixed model), 2 (competitive), or 3 (uncompetitive) based on the calculated α value and goodness of fit in GraphPad Prism. Reported standard errors of the mean for Kis are calculated from three replicates.

DXPS = target: T3, DXPS (Escherichia coli, UniProt P77488); assay: NMR detection of chemical reduction by DXPS and substrates (LR 1H-15N HSQC); type: biochemical; conditions: 500 μM
T3 construct: made in house
Procedure: In order to determine if 1 is reduced by the C2-α-carbanion on DXPS, we prepared the ^15N-labeled analog 8 aerobically in Tris pH 8 (to bias the oxidized form, Fig S7) and then transferred this mixture to the anaerobic chamber to minimize O2-mediated re-oxidation of 8 following reduction by the C2-α-carbanion (Fig S18). […] Reactions containing 8 (500 μM) were then initiated by the addition of DXPS (1 μM) and ^13C-labeled pyruvate (2 mM), in the presence or absence of 500 μM GAP (Fig 8B–E, S22–23). Samples were then quenched by boiling and vortexing before being transferred into degassed NMR tubes and sealed with rubber septa and parafilm to preclude reoxygenation. […] Further evidence supporting Model 2 in which 1 induces LThDP decarboxylation and promotes substrate wasting, was obtained by detection of products using 1D ^1H-NMR which selectively detects H{^13C} and H3{^13C} spectra via a proton multiplicity filter (Fig 8, S23–24). […] Production of DXP relative to acetate in the presence of D-GAP was reduced in the presence of 8 (Fig S24), consistent with a mechanism in which 1 competes with GAP as an acceptor and in agreement with the previously characterized competitive mechanism of inhibition with respect to D-GAP.[32]
Reaction buffer (50 mM Tris pH 8, 2 mM MgCl2, 100 mM NaCl, 1 mM ThDP, 10% D2O) was prepared aerobically. Oxime 8 (500 μM) was added, and the mixture was incubated at 4 °C for 30 min. Reaction mixtures were then brought into the anaerobic chamber and allowed to deoxygenate ~2 hrs. Reactions were initiated by addition of 1 μM DXPS with 2 mM sodium pyruvate-^13C3 or 2 mM sodium pyruvate-^13C3 and 500 μM GAP. Reaction mixtures were incubated at 25 °C for 1 hr. Reactions were quenched by boiling for 5 min at 95 °C followed by vortexing for 15 seconds. The quenched mixtures were transferred to labeled NMR tubes which were sealed with rubber septa and parafilm prior to removal from the chamber to exclude oxygen once removed from the chamber. 2D Multiple Bond Long Range (LR) ^1H-^15N-HSQC and 1D ^1H detected H{^13C} and H3{^13C} spectra via a proton multiplicity filter which selects for ^13C nuclei attached to an odd number of protons were acquired on a Bruker Avance NEO 600 MHz spectrometer equipped with a TCI cryogenic probe equipped with z-gradients with a cryo-cooled ^13C preamplifier, resulting in high sensitivity for ^13C detection. Spectra were acquired at 600 MHz (^1H), 150 MHz (^13C), and 61 MHz (^15N) at 25 °C. Parameters for various categories of spectra are as follows: (LR ^1H-^15N HSQC): 16 scans and 150 ms acquisition time (t2) per FID and a ^1H spectral width of 15.1376 ppm; since the chemical shifts of N^R (δ 335) and N^O (δ 374) are separated by ~ 40 ppm, data collection times were optimized by positioning the ^15N carrier at 354 ppm and using an ^15N spectral width of 25 ppm and an acquisition time of 13 ms along ^15N (t1); with a 1.5 s relaxation delay between successive scans, the total data collection period per 2D spectrum was 20 minutes. ^1H detected H{^13C} and H3{^13C} filtered 1D spectra: 200 ms acquisition time/FID, and a 5s relaxation day between successive scans, 1.5 minutes per spectrum. Controls were also prepared in which reactions were initiated by addition of 1 μM DXPS with no substrates, as well as 2 mM ^13C-labeled pyruvate + 500 μM GAP with DXPS dialysis buffer in place of enzyme. A “mixed” redox state control of 1 (500 μM) was prepared aerobically in 50 mM HEPES pH 8 with 10% D2O.

CC(=O)P(=O)(O)OCCc1cn([C@H](Cc2ccccc2)C(=O)O)nn1 [D-PheTrAP, D-phenylalanine triazol acetyl phosphonate]
fold loss in potency on EcR478A (R478A DXPS): > 30 fold

CO/N=C/c1cc(O)c(O)cc1O [compound 2]
MOI varying pyruvate (EcDXPS [1]; footnote a): Noncompetitive | Ki (EcDXPS [1]; vary pyruvate): 15.6 ± 0.7 µM

N/N=C/c1cc(O)c(O)cc1O [compound 3, (E,Z)-5-(hydrazineylidenemethyl)benzene-1,2,4-triol]
Ki (EcDXPS [2]): 17.5 ± 0.6 µM | MOI varying D-GAP (EcDXPS [2]): competitive | MOI varying pyruvate (EcDXPS [2]): uncompetitive

CN/N=C/c1cc(O)c(O)cc1O [compound 4]
potency against DXPS (EcDXPS [1]; determined in the presence of ascorbate): lacking measurable potency | MOI varying D-GAP (EcDXPS [2]): mixed | MOI varying pyruvate (EcDXPS [2]): uncompetitive

CO/N=C/c1ccc(O)c(O)c1 [compound 5]
inhibitory activity against DXPS (EcDXPS [1]): lack of potency

CO/N=C/c1cc(O)ccc1O [compound 6]
inhibitory activity against DXPS (EcDXPS [1]): lack of potency

O/[15N]=C/c1cc(O)c(O)cc1O [compound 8, ^15N-labeled (E)-2,4,5-Trihydroxybenzaldehyde oxime]
redox state after incubation (LR 1H-15N HSQC) (DXPS; DXPS 1 μM + pyruvate 2 mM + D-GAP 500 μM, anaerobic): readily reduced | redox state after incubation (LR 1H-15N HSQC) (DXPS; DXPS 1 μM + pyruvate 2 mM, no GAP, anaerobic): fully reduced | redox state after incubation (LR 1H-15N HSQC) (DXPS; DXPS 1 μM, no substrates): maintained mostly in the oxidized form | redox state after incubation (LR 1H-15N HSQC) (DXPS; ascorbate 5 mM control): Total reduction | redox state after incubation (LR 1H-15N HSQC) (DXPS; pyruvate 2 mM + D-GAP 500 μM, no DXPS): Some reduction
